In this assay the test system is NHACs. Nature of the assay: calcium flux assay. Type of assay: cell-based, human. The settings on record: Homo sapiens; for Emax: read-out: (A) % Efficacy. The method, boiled down: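 Normal human articular chondrocytes plated at 2000 cells/well and loaded 24 h later with Calcium 5 dye in HBSS/HEPES with 5 mM probenecid for 1 h at room temperature. Test compound added at indicated dose; fluorescence (ex 470–495/em 515–575 nm) recorded on FLIPR before and after addition.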
(Calcium flux is commonly read through the fluorescence of an indicator in the cells.)

In general, EC50 refers to the concentration needed to bring the measured effect to its halfway point.

For `O=C(Nc1cccc(C(F)(F)F)c1)[C@@H]1[C@@H]2O[C@@H](C[C@H]2O)[C@@H]1c1ccncc1` [Example 12, (1S,2S,3S,4S,6R)-6-hydroxy-3-(pyridin-4-yl)-N-[3-(trifluoromethyl)phenyl]-7-oxabicyclo[2.2.1]heptane-2-carboxamide], the EC50 was greater than 50 µM and the Emax stood at 22%.

In the case of `O=C(Nc1ccc(Cl)c(Cl)c1)[C@@H]1[C@@H]2O[C@@H]([C@H]3C[C@H]32)[C@@H]1c1ccnc(F)c1F` (single isomer, unassigned) [Example 29], the EC50 is greater than 50 µM and the Emax amounted to 6%.

Regarding `O=C(Nc1ccc(Cl)c(Cl)c1)[C@@H]1[C@@H]2O[C@@H]([C@H]3C[C@H]32)[C@@H]1c1cnc(N2CCOCC2)nc1` [Example 40, (1S,2S,4R,5R,6S,7S)—N-(3,4-dichlorophenyl)-7-(2-morpholinopyrimidin-5-yl)-8-oxatricyclo[3.2.1.0^2,4]octane-6-carboxamide], the EC50 was greater than 50 µM and the Emax stood at 37%.

In the case of `O=C(Nc1cccc(C(F)(F)F)c1)[C@@H]1[C@@H]2O[C@@H]([C@H]3C[C@H]32)[C@@H]1c1cncnc1` [Example 37, (1S,2S,4R,5R,6S,7S)-7-(pyrimidin-5-yl)-N-(3-(trifluoromethyl)phenyl)-8-oxatricyclo[3.2.1.0^2,4]octane-6-carboxamide], the EC50 was greater than 50 µM and the Emax worked out at 26%.

Consider `Cc1cc([C@H]2[C@H]3O[C@H](C[C@@H]3F)[C@@H]2C(=O)Nc2cccc(C(F)(F)F)c2)ccn1` [Example 107, (1R,2R,3S,4R,5S)-5-fluoro-3-(2-methylpyridin-4-yl)-N-(3-(trifluoromethyl)phenyl)-7-oxabicyclo[2.2.1]heptane-2-carboxamide], for which the EC50 worked out at 12 µM and the Emax was 139%.

For `O=C(Nc1cnc(Cl)c(Cl)c1)[C@@H]1[C@H]2O[C@H]([C@@H]3C[C@@H]32)[C@H]1c1ccnc(F)c1F` (single isomer, unassigned) [Example 73], the EC50 worked out at 16 µM and the Emax stood at 127%.

For `Cc1cc([C@H]2[C@H]3O[C@H](C[C@@H]3O)[C@H]2C(=O)Nc2cc(Cl)c(Cl)cn2)ccn1` [Example 4, (1R,2S,3S,4R,5S)-N-(4,5-dichloropyridin-2-yl)-5-hydroxy-3-(2-methylpyridin-4-yl)-7-oxabicyclo[2.2.1]heptane-2-carboxamide], the EC50 was greater than 50 µM and the Emax was found to be 28%.

Take `O=C(Nc1ccc(Cl)c(Cl)c1)[C@@H]1[C@@H](c2ccncc2)[C@H]2O[C@@H]1C[C@@H]2O` [Example 150, (1R,2R,3S,4R,5S)—N-(3,4-dichlorophenyl)-5-hydroxy-3-(pyridin-4-yl)-7-oxabicyclo[2.2.1]heptane-2-carboxamide]: the concentration giving a half-maximal response (EC50) was greater than 50 µM and the Emax turned out to be 5%.

As to `CN(C)c1ncc([C@H]2[C@H]3O[C@H](C[C@@H]3O)[C@@H]2C(=O)Nc2ccc(Cl)c(Cl)c2)cn1` [Example 144, (1R,2R,3S,4R,5S)—N-(3,4-dichlorophenyl)-3-(2-(dimethylamino)pyrimidin-5-yl)-5-hydroxy-7-oxabicyclo[2.2.1]heptane-2-carboxamide], the EC50 turned out to be 30 µM and the Emax was found to be 183%.

On to `O=C(Nc1ccc(Cl)c(Cl)c1)[C@H]1[C@@H]2O[C@@H]([C@H]3C[C@H]32)[C@@H]1c1ccnc(F)c1F` (single isomer, unassigned) [Example 122a], for which the EC50 is 25 µM and the Emax turned out to be 160%.

Take `O=C(Nc1ccc(Cl)c(Cl)c1)[C@H]1[C@@H]2O[C@@H]([C@H]3C[C@H]32)[C@@H]1c1ccncc1` [Example 137, (1S,2S,4R,5R,6R,7S)—N-(3,4-dichlorophenyl)-7-(pyridin-4-yl)-8-oxatricyclo[3.2.1.0^2,4]octane-6-carboxamide]: the EC50 amounted to 21 µM and the Emax stood at 202%.

In the case of `O=C(Nc1cccc(C(F)(F)F)c1)[C@@H]1[C@@H]2O[C@@H]([C@H]3C[C@H]32)[C@@H]1c1ccnc(F)c1` [Example 41, (1S,2S,4R,5R,6S,7S)-7-(2-fluoropyridin-4-yl)-N-(3-(trifluoromethyl)phenyl)-8-oxatricyclo[3.2.1.0^2,4]octane-6-carboxamide], the EC50 was found to be 24 µM and the Emax is 121%.

Consider `O=C(Nc1cnc(Cl)c(Cl)c1)[C@H]1[C@@H]2O[C@@H]([C@H]3C[C@H]32)[C@@H]1c1ccnc(F)c1F` (single isomer, unassigned) [Example 72], for which the EC50 worked out at 7.7 µM and the Emax worked out at 208%.

As for `O=C(Nc1ccc(Cl)c(Cl)c1)[C@H]1[C@@H]2O[C@@H]([C@@H](O)[C@H]2O)[C@@H]1c1ccncc1` [Example 160, (1S,2R,3S,4R,5S,6R)—N-(3,4-dichlorophenyl)-5,6-dihydroxy-3-(pyridin-4-yl)-7-oxabicyclo[2.2.1]heptane-2-carboxamide], the EC50 was greater than 50 µM and the Emax was found to be 32%.

With `Cc1cc([C@H]2[C@H]3O[C@H](C[C@@H]3O)[C@H]2C(=O)Nc2ccc(Cl)c(Cl)c2)ccn1` (racemic) [Example 53, rac-(1R,2S,3S,4R,5S)—N-(3,4-dichlorophenyl)-5-hydroxy-3-(2-methylpyridin-4-yl)-7-oxabicyclo[2.2.1]heptane-2-carboxamide], the EC50 is greater than 50 µM and the Emax was determined as 43%.

On to `COc1cc([C@H]2[C@H]3O[C@H]([C@@H]4C[C@@H]43)[C@@H]2C(=O)Nc2ccc(Cl)c(Cl)c2)ccn1` [Example 118, (1S,2S,4R,5R,6R,7S)—N-(3,4-dichlorophenyl)-7-(2-methoxypyridin-4-yl)-8-oxatricyclo[3.2.1.0^2,4]octane-6-carboxamide], for which the EC50 was 8.2 µM and the Emax is 118%.

With `COc1cc([C@@H]2[C@@H]3O[C@@H](C[C@H]3O)[C@@H]2C(=O)Nc2ccc(Cl)c(Cl)c2)ccn1` (single isomer, unassigned) [Example 49b], the EC50 was greater than 50 µM and the Emax worked out at 31%.

Regarding `Cc1cc([C@H]2[C@H]3O[C@H](C[C@@H]3O)[C@@H]2C(=O)Nc2ccc(Cl)c(Cl)c2)ccn1` (racemic) [Example 77, rac-(1R,2R,3S,4R,5S)—N-(3,4-dichlorophenyl)-5-hydroxy-3-(2-methylpyridin-4-yl)-7-oxabicyclo[2.2.1]heptane-2-carboxamide], the EC50 amounted to 26 µM and the Emax came to 49%.

With `Nc1cc([C@H]2[C@H]3O[C@H](C[C@@H]3O)[C@H]2C(=O)Nc2ccc(Cl)c(Cl)c2)ccn1` [Example 57, (1R,2S,3S,4R,5S)-3-(2-aminopyridin-4-yl)-N-(3,4-dichlorophenyl)-5-hydroxy-7-oxabicyclo[2.2.1]heptane-2-carboxamide], the EC50 is greater than 50 µM and the Emax turned out to be 56%.

As for `COc1ccc(NC(=O)[C@@H]2[C@@H]3O[C@@H]([C@H]4C[C@H]43)[C@@H]2c2ccc(C)nc2)cn1` (racemic) [Example 2, rac-(1S,2S,4R,5R,6S,7S)—N-(6-methoxypyridin-3-yl)-7-(6-methylpyridin-3-yl)-8-oxatricyclo[3.2.1.0^2,4]octane-6-carboxamide], the EC50 was determined as 0.3 µM and the Emax stood at 45%.

On to `O=C(Nc1cccc(C(F)(F)F)c1)[C@H]1[C@@H]2O[C@@H]([C@H]3C[C@H]32)[C@@H]1c1ccnc(F)c1` [Example 134, (1S,2S,4R,5R,6R,7S)-7-(2-fluoropyridin-4-yl)-N-(3-(trifluoromethyl)phenyl)-8-oxatricyclo[3.2.1.0^2,4]octane-6-carboxamide], for which the EC50 worked out at 19 µM and the Emax came out at 249%.

As to `O=C(Nc1ccc(Cl)c(Cl)c1)[C@@H]1[C@@H](c2cccc(C(F)(F)F)n2)[C@H]2O[C@@H]1C[C@@H]2O` [Example 140, (1R,2R,3S,4R,5S)—N-(3,4-dichlorophenyl)-5-hydroxy-3-(6-(trifluoromethyl)pyridin-2-yl)-7-oxabicyclo[2.2.1]heptane-2-carboxamide], the EC50 is 15 µM and the Emax worked out at 292%.

For `Cc1cc([C@H]2[C@H]3O[C@H](C[C@@H]3O)[C@@H]2C(=O)Nc2cccc(C(F)(F)F)c2)ccn1` [Example 85, (1R,2R,3S,4R,5S)-5-hydroxy-3-(2-methylpyridin-4-yl)-N-(3-(trifluoromethyl)phenyl)-7-oxabicyclo[2.2.1]heptane-2-carboxamide], the concentration giving a half-maximal response (EC50) is greater than 50 µM and the Emax worked out at 56%.

Turning to `Cc1cc([C@@H]2[C@@H](C(=O)Nc3cccc(C(F)(F)F)c3)[C@@H]3O[C@H]2C[C@H]3O)ccn1` [Example 86, (1S,2R,3S,4S,6R)-6-hydroxy-3-(2-methylpyridin-4-yl)-N-(3-(trifluoromethyl)phenyl)-7-oxabicyclo[2.2.1]heptane-2-carboxamide], the EC50 was greater than 50 µM and the Emax stood at 38%.

As for `COc1ccc(NC(=O)[C@@H]2[C@@H](c3ccnc(C)c3)[C@H]3O[C@@H]2C[C@H]3F)cn1` [Example 97, (1R,2R,3S,4R,5R)-5-fluoro-N-(6-methoxypyridin-3-yl)-3-(2-methylpyridin-4-yl)-7-oxabicyclo[2.2.1]heptane-2-carboxamide], the EC50 is greater than 50 µM and the Emax was 2%.

For the compound `Cc1cc([C@@H]2[C@@H](C(=O)Nc3cccc(C(F)(F)F)c3)[C@@H]3O[C@H]2C[C@H]3F)ccn1` [Example 108, (1S,2R,3S,4S,6R)-6-fluoro-3-(2-methylpyridin-4-yl)-N-(3-(trifluoromethyl)phenyl)-7-oxabicyclo[2.2.1]heptane-2-carboxamide], the EC50 worked out at 27 µM and the Emax came out at 137%.

For `COc1ccc(NC(=O)[C@@H]2[C@@H]3O[C@@H]([C@H]4C[C@H]43)[C@@H]2c2ccncc2)cn1` [Example 33, (1S,2S,4R,5R,6S,7S)—N-(6-methoxypyridin-3-yl)-7-(pyridin-4-yl)-8-oxatricyclo[3.2.1.0^2,4]octane-6-carboxamide], the EC50 is 4.6 µM and the Emax was determined as 49%.
